Experimental data from patent US6855512B2, “Methods for identifying inhibitors of cytochrome P450RAI” (Allergan, Inc., priority 2000, dated 2005).

Legend:
[1] = target: T1, P450RAI-1 (Homo sapiens, UniProt O43174); test: P450RAI-1 cell-based inhibitor assay (intact HeLa); conditions: read-out: P450RAI INHIBITION DATA INTACT HELA IC50
T1 construct: expressed in transfected cells; host or cells: HeLa (stably transfected, hygromycin selection)
T1 sequence (O43174 1-497): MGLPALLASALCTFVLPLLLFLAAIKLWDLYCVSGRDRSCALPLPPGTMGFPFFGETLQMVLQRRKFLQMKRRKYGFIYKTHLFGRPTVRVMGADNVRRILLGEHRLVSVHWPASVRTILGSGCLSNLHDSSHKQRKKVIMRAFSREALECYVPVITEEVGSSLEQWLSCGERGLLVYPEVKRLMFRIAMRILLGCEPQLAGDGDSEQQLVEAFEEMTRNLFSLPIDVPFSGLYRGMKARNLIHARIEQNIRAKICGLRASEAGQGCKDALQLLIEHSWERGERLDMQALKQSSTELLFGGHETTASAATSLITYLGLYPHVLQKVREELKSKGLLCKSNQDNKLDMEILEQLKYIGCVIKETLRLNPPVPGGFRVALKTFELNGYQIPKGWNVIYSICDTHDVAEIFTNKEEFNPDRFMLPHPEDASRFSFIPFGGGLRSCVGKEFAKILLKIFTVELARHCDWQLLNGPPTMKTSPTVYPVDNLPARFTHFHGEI
Experimental: P450RAI-1 Cell-Based Inhibitor Assay:
P450RAI-1 stably transfected HeLa cells are maintained in […] tissue culture dishes in Modified Eagle's Medium (MEM) containing 10% Fetal Bovine Serum (FBS) and 100 μg/ml hygromycin. Exponentially growing cells are harvested by incubating in trypsin. Cells are then washed with 1× Phosphate Buffered Saline (PBS) and plated in a 48-well plate at 5×10^5 cells in 0.2 ml MEM medium containing 10% FBS and 0.05 μCi [^3H]-RA in the presence or absence of increasing concentrations of the test compounds. The compounds are diluted in 100% DMSO and then added in triplicate wells at either 10, 1 or 0.1 μM final concentration. As a positive control for RA metabolism inhibition, cells are also incubated with ketoconazole at 100, 10 and 1 μM. Cell are incubated for 3 hours at 37° C. […] The water soluble radioactivity is quantified using β-scintillation counter. IC50 values represent the concentration of inhibitor required to inhibit all-trans-RA metabolism by 50 percent and are derived manually from log-transformed data.

[2] = target: T2, RARβ (Homo sapiens, UniProt P10826); test: chimeric receptor transactivation assay, RARβ; type: cell-based; conditions: EC50 line of EC50/(EFFICACY)/Kd, read-out: RAR β EC50
T2 sequence (P10826 183-417 limits assumed): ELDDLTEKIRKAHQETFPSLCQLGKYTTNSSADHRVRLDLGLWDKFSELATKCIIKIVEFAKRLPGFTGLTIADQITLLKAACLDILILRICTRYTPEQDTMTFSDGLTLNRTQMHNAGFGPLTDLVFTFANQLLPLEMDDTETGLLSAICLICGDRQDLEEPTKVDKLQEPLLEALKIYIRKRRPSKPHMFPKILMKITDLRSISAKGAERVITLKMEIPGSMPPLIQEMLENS
Excerpt: (§1) Assays described below measure the ability of a compound to bind to, and/or activate various retinoid receptor subtypes. When in these assays a compound binds to a given receptor subtype and activates the transcription of a reporter gene through that subtype, then the compound is considered an agonist of that receptor subtype. […] In the below described assays the ability of the compounds to bind to RARα, RARβ, RARγ, RXRα, RXRβ and RXRγ receptors, and the ability or inability of the compounds to activate transcription of a reporter gene through these receptor subtypes can be tested.
(§2) The results obtained in this assay are expressed in EC50 numbers, as they are also in the chimeric receptor transactivation assay. The results of ligand binding assay are expressed in Kd numbers.

[3] = target: T3, RARγ (Homo sapiens, UniProt P13631); test: chimeric receptor transactivation assay, RARγ; type: cell-based; conditions: EC50 line of EC50/(EFFICACY)/Kd, read-out: RAR γ EC50
T3 sequence (P13631 185-454 limits assumed): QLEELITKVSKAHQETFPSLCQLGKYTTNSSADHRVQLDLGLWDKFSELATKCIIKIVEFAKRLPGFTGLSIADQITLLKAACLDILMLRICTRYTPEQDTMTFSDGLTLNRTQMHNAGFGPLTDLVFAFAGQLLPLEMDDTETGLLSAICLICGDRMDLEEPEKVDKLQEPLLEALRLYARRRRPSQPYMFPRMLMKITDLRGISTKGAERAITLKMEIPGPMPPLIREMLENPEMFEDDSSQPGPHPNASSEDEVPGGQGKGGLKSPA
Excerpt: as §1, §2

[4] = target: T4, RARγ (Homo sapiens, UniProt P13631); test: ligand binding assay, RARγ; conditions: Kd line of EC50/(EFFICACY)/Kd, K = thousand, read-out: RAR γ Kd
T4 sequence (P13631 1-454): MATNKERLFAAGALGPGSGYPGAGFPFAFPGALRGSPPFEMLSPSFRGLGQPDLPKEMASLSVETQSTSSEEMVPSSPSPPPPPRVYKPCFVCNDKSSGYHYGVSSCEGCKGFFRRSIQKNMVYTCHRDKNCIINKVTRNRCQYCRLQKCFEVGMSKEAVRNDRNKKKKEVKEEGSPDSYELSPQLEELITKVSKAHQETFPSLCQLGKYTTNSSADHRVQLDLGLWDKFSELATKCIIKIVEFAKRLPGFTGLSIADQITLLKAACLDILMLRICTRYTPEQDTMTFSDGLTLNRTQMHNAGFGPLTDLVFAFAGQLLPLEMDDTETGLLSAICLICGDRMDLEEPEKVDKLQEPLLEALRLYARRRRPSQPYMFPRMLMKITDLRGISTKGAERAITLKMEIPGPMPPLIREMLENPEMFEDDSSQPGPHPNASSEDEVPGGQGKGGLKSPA
Excerpt: as §1, §2

[5] = target: T5, RARβ (Homo sapiens, UniProt P10826); test: ligand binding assay, RARβ; conditions: Kd line of EC50/(EFFICACY)/Kd, K = thousand, read-out: RAR β Kd
T5 sequence (P10826 1-455): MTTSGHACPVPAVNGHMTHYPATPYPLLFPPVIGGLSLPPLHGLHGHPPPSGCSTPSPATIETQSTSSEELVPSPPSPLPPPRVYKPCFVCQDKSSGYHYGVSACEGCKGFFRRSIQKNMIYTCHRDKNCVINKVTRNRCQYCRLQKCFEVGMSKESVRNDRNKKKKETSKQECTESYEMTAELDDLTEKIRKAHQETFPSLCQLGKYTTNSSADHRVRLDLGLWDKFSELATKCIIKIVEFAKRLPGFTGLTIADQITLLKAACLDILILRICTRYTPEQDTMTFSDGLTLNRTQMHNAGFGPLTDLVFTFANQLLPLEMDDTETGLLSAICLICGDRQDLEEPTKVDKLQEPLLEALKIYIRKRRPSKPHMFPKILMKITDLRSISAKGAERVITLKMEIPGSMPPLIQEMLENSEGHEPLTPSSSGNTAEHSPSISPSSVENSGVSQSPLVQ
Excerpt: as §1, §2

IC50 [1]: 520 nM
EC50 [2]: > 10000 nM
EC50 [3]: 180 nM
Kd [4]: 4390 nM
Kd [5]: 1100 nM
Structure (SMILES): CC1(C)CC(C)(C)c2cc(C#Cc3ccc(C(=O)O)cc3)ccc2O1 [Compound 201]
